Reference: US20090214507A1, “METHOD OF TREATING PREVENTING, INHIBITING OR REDUCING DAMAGE TO CARDIAC TISSUE” (RegeneRx Biopharmaceuticals, Inc., priority 2004, published 2009)

Columns and labels:
[1] = system: cardiac endothelial cells; assay: collagen gel assay, transformation of cardiac endothelial cells to mesenchymal cells; assay type: cell-based; conditions: Tβ4 at physiological concentrations
Method: Synthetic Tβ4 and an antibody to Tβ4 was provided by RegeneRx Biopharmaceuticals, Inc. (3 Bethesda Metro Center, Suite 700, Bethesda, Md. 20814) and were tested in a collagen gel assay to determine their effects on the Transformation of cardiac endothelial cells to mesenchymal cells. It is well established that development of heart valves and other cardiac tissue are formed by epithelial-mesenchymal transformation and that defects in this process can cause serious cardiovascular malformation and injury during development and throughout life. […] Transformation of atrioventricular endocardium into invasive mesenchyme is an aspect of the formation and maintenance of normal cardiac tissue and in the formation of heart valves.

embryonic heart explants = assay: embryonic heart explant collagen gel migration assay; assay type: cell-based, mouse
Method: To test the effects of secreted thymosin β4 on cardiac cell migration, an embryonic heart explant system designed to assay cell migration and transformation events on a three-dimensional collagen gel was utilized. In this assay, explants of adjacent embryonic myocardium and endocardium from valve-forming regions were placed on a collagen gel with the endocardium adjacent to the collagen.
(§1) To test the response of post-natal cardiomyocytes, primary rat neonatal cardiomyocytes were cultured on laminin-coated glass and treated the cells with phosphate buffered saline (PBS) or thymosin β4.
To determine if activation of ILK was necessary for the observed effects of thymosin β4, a well-described ILK inhibitor, wortmannin, was employed, which inhibits ILK's upstream kinase, phosphatidylinositol 3-kinase (PI3-kinase). Using myocardial cell migration and beating frequency as assays for thymosin β4 activity, embryonic heart explants were cultured as described above in the presence of thymosin β4 with or without wortmannin.
Outflow tract was dissected from E11.5 wild type mouse embryos and placed on collagen matrices as previously described. After 10 hours of attachment explants were incubated in 30 ng/300 μl thymosin β4 in PBS, PBS alone or thymosin β4 and 100 nM wortmannin. Cultures were carried out for 3-9 days at 37° C. 5% CO2 and fixed in 4% paraformaldehyde in PBS for 10 min at RT. Cells were counted for quantification of migration and distance using at least three separate explants under each condition for endothelial migration and eight separate explants for myocardial migration.
Paraformaldehyde-fixed explants were permeabilized for 10 min at RT with Permeabilize solution (10 mM PIPES pH6.8; 50 mMNaC1; 0.5% Triton X-100; 300 mM Sucrose; 3 mM MgC12) and rinsed with PBS 2×5 min at RT. After a series of blocking and rinsing steps, detection antibodies were used and explants rinsed and incubated with Equilibration buffer (Anti-Fade kit) 10 min at room temperature. Explants were scooped to a glass microscope slide, covered, and examined by fluorescein microscopy. TUNEL assay was performed using ApopTag Plus Fluorescein In Situ Apoptosis detection kit (Intergen Company #S7111) as recommended.

[2] = system: primary rat neonatal cardiomyocytes; assay: primary neonatal cardiomyocyte culture on laminin-coated glass; assay type: cell-based
Method: as §1
Primary culture of neonatal cardiomyocytes typically survived for approximately one to two weeks with some cells beating up to two weeks when grown on laminin-coated slides in our laboratory. […] In addition, the rate of beating was consistently faster in thymosin β4-treated neonatal cardiomyocytes (95 vs. 50 beats per minute, p<0.02), indicating either a change in cell-cell communication or more vigorous cardiomyocytes.

[3] = system: myocardial infarction in adult mice; assay: myocardial infarction by coronary artery ligation, echocardiography and histology; assay type: in vivo, mouse
Method: Because of thymosin β4's effects on survival and migration of cardiomyocytes cultured in vitro and phosphorylation of Akt, it was tested whether thymosin β4 might aid in cardiac repair in vivo after myocardial damage. Myocardial infarctions in fifty-eight adult mice were created by coronary artery ligation and treated half with systemic, intracardiac, or systemic plus intracardiac thymosin β4 immediately after ligation and the other half with PBS. Intracardiac injections were done with collagen (control) or collagen mixed with thymosin β4. All forty-five mice that survived two weeks later were interrogated for cardiac function by random-blind ultrasonography at 2 and 4 weeks after infarction by multiple measurements of cardiac contraction. […] Control cardiac injections were performed with the same collagen vehicle making it unlikely that an endogenous reaction to the injection contributed to the cardiac recovery.
To determine the manner in which […] improved cardiac function, multiple serial histologic sections of hearts treated with or without thymosin β4 were examined. […] TUNEL positive cells that were also myocytes were rare in the thymosin β4 group but abundant in the control hearts. […] Thus, the decreased scar volume and preserved function of thymosin β4 treated mice were likely due to early preservation of myocardium after infarction through thymosin β4's effects on survival of cardiomyocytes.
Embryonic or adult cardiac tissue was embedded in paraffin and sections used for immunohistochemistry. […] Adult hearts were sectioned at ten equivalent levels from the base of the heart to the apex. Serial sections were used for trichrome sections and reaction with sarcomeric a-actinin, c-kit, Sca-1, Abcg2, and BrdU antibodies and for TUNEL assay (Intergen Company #S7111).
Myocardial infarction was produced in fifty-eight male C57BL/6J mice at 16 weeks of age (25-30 g) by ligation of the left anterior descending coronary artery as previously described. Twenty-nine of the ligated mice received thymosin β4 treatment immediately following ligation and the remaining twenty-nine received PBS injections. Treatment was given intracardiac with thymosin β4 (200 ng in 10 ul collagen) or with 10 ul of collagen; intraperitoneally with thymosin β4 (150 μg in 300 μl PBS) or with […]; or by both intracardiac and intraperitoneal injections. Intraperitoneal injections were given every three days until mice were sacrificed. Doses were based on previous studies of thymosin β4 biodistribution. Hearts were removed, weighed and fixed for histologic sectioning. Additional mice were operated on in a similar fashion for studies 0.5, 1, 3, 6 and 11 days after ligation.
Echocardiograms to assess systolic function were performed using M-mode and 2-dimensional measurements as described previously. The measurements represented the average of six selected cardiac cycles from at least two separate scans performed in random-blind fashion with papillary muscles used as a point of reference for consistency in level of scan. End diastole was defined as the maximal left ventricle (LV) diastolic dimension and end systole was defined as the peak of posterior wall motion. Single outliers in each group were omitted for statistical analysis. Fractional shortening (FS), a surrogate of systolic function, was calculated from LV dimensions as follows: FS=EDD−ESD/EDD×100%. Ejection fraction (EF) was calculated from two-dimensional images. EDD, end diastolic dimension; ESD, end systolic dimension.
Scar volume was calculated using six sections through the heart of each mouse using Openlab 3.03 software (Improvision) similar to previously described. Percent area of collagen deposition was measured on each section in blinded fashion and averaged for each mouse.

[4] = four weeks after infarction, versus control

thymosin β4
transformation of endocardial cells to mesenchymal cells [1]: markedly enhances | number of migrating endothelial cells (embryonic heart explants; E11.5 explants, compared to PBS, p<0.01): increased number of migrating endothelial cells | cell death (TUNEL assay) in migrated cells (embryonic heart explants; compared to control cells): No significant difference | proliferative rate (phosho-histone H3 immunostaining) in migrated cells (embryonic heart explants; compared to control cells): No significant difference | migration of myocardial cells away from the explant (embryonic heart explants; thymosin β4 added to primary explants on collagen gel): a large number of spontaneously beating, cardiac muscle actin-positive cells had migrated away from the explant | migrational distance of neonatal cardiomyocytes ([2]; compared to control, p<0.05): significantly increased | survival in culture, rhythmically contracting myocytes visible ([2]; control cultures survive approximately one to two weeks): up to 28 days | rate of beating ([2]; vs. 50 in control, p<0.02): 95 beats per minute | cardiac dilation after infarction (EDD and ESD) ([3]; EDD and ESD significantly higher in control group): decreased cardiac dilation | mean ejection fraction ([3]; four weeks after infarction, n=23, 95% confidence interval, control 28.2): 57.7+/−3.2% | mean left ventricle fractional shortening ([3]; four weeks after infarction, n=23, 95% confidence intervals, control 23.2): 37.2+/−1.8% | improvement in cardiac fractional shortening [3, 4]: greater than 60% | improvement in ejection fraction [3, 4]: > 100% | degree of improvement, systemic (intraperitoneal) versus local intracardiac administration ([3]; mouse, in vivo, ip): not statistically different | scar volume ([3]; six levels of sections through left ventricle, subset of mice, p<0.05): significant reduction | left ventricle fractional shortening ([3]; three days after infarction, intracardiac treatment, n=4, 95% confidence interval, control 28.8): 39.2+/−2.34% | ejection fraction ([3]; three days after infarction, intracardiac treatment, control 44.7): 64.2+/−6.69% | size of scar (trichrome stain) ([3]; three levels of section, all treated mice): reduced | cardiomyocyte proliferation or death ([3]; three, six, eleven or fourteen days after coronary ligation): did not detect significant cardiomyocyte proliferation or death | number of c-kit, Sca-1 or Abcg2 positive cardiomyocytes ([3]; treated versus untreated hearts): no detection of any differences | cardiomyocyte cell death by TUNEL assay ([3]; twenty-four hours after ligation): striking decrease in cell death
